Results published in PubChem BioAssay AID222 (DTP/NCI, 2004).
“And” between values parts separate entries of the source, which are not always exact repeats. Equal entries are not always repeated. Toxic doses and inconclusive results are not listed. Starred links: 1 amine or outer side, 2 acyl side, 3 side chain; linkers in the order of their positions; H or OH if unused. Positions of bridges follow the written chain, without caps; N, C: chain ends. Non-standard residues stand in square brackets, D forms with d. Residues, ends and D or L forms follow the SMILES beside them. Chains are numbered I, II in the order given. Actinocin(1to9) = Cc1c2oc3c(C)ccc(C(=O)[*:2])c3nc-2c(C(=O)[*:1])c(N)c1=O; NMeV = CN[CH](C(=O)O)C(C)C; Aze = O=C(O)[CH]1CCN1; Sar = CNCC(=O)O

System: C57BL/6 mice, intracerebral ependymoblastoma, median survival T/C
Test: NCI In Vivo Anticancer Drug Screen. Data for tumor model Ependymoblastoma (intracerebral) in C57BL/6 mice
Conditions: endpoint: median survival time, higher = longer survival
Method: The antitumor activity of compounds was measured in mice bearing transplantable tumors. Survival or tumor size were measured and the results are expressed as the measurement made in the treated group (T) divided by the measurement made in the vehicle treated control group (C). The tumor model used in this assay is Ependymoblastoma (intracerebral) in C57BL/6 mice

[1] = dose: 16.0 mg/kg/injection, schedule: Q01DX005 (ip), vehicle: saline
[2] = dose: 32.0 mg/kg/injection, schedule: Q01DX005 (ip), vehicle: saline
[3] = dose: 16.0 mg/kg/injection, schedule: Q01DX005 (ip), vehicle: saline with Tween-80
[4] = dose: 32.0 mg/kg/injection, schedule: Q01DX005 (ip), vehicle: saline with Tween-80
[5] = dose: 8.0 mg/kg/injection, schedule: Q01DX005 (ip), vehicle: Klucel (hydroxypropylcellulose) (HPC)
[6] = dose: 16.0 mg/kg/injection, schedule: Q01DX005 (ip), vehicle: Klucel (hydroxypropylcellulose) (HPC)
[7] = dose: 32.0 mg/kg/injection, schedule: Q01DX005 (ip), vehicle: Klucel (hydroxypropylcellulose) (HPC)

CN(N=O)C(=O)N[C@@H](C=O)[C@@H](O)[C@H](O)[C@H](O)CO
T/C (dose: 14.5 mg/kg/injection, schedule: Q## X006 (ip), vehicle: saline): 109 % of control
T/C (dose: 16.0 mg/kg/injection, schedule: Q01DX001 (ip), vehicle: saline): 98 % of control and 109 % of control
T/C (dose: 16.0 mg/kg/injection, schedule: Q01DX005 (ip), vehicle: other): 113 % of control
T/C [1]: 117 % of control
T/C (dose: 16.0 mg/kg/injection, schedule: Q#A X002 (ip), vehicle: saline): 100 % of control and 108 % of control
T/C (dose: 29.0 mg/kg/injection, schedule: Q## X006 (ip), vehicle: saline): 111 % of control
T/C (dose: 32.0 mg/kg/injection, schedule: Q01DX001 (ip), vehicle: other): 105 % of control
T/C (dose: 32.0 mg/kg/injection, schedule: Q01DX001 (oral), vehicle: other): 116 % of control
T/C (dose: 32.0 mg/kg/injection, schedule: Q01DX005 (ip), vehicle: other): 120 % of control
T/C [2]: 114 % of control
T/C (dose: 32.0 mg/kg/injection, schedule: Q01DX005 (oral), vehicle: other): 95 % of control
T/C (dose: 32.0 mg/kg/injection, schedule: Q01DX005 (oral), vehicle: saline): 102 % of control
T/C (dose: 32.0 mg/kg/injection, schedule: Q## X006 (ip), vehicle: other): 112 % of control
T/C (dose: 32.0 mg/kg/injection, schedule: Q#A X002 (ip), vehicle: saline): 104 % of control and 114 % of control
T/C (dose: 57.9 mg/kg/injection, schedule: Q## X006 (ip), vehicle: saline): 114 % of control
T/C (dose: 64.0 mg/kg/injection, schedule: Q01DX001 (oral), vehicle: other): 102 % of control
T/C (dose: 64.0 mg/kg/injection, schedule: Q01DX005 (ip), vehicle: other): 110 % of control
T/C (dose: 64.0 mg/kg/injection, schedule: Q01DX005 (oral), vehicle: other): 103 % of control
T/C (dose: 64.0 mg/kg/injection, schedule: Q01DX005 (oral), vehicle: saline): 101 % of control
T/C (dose: 64.0 mg/kg/injection, schedule: Q## X006 (ip), vehicle: other): 116 % of control
T/C (dose: 64.0 mg/kg/injection, schedule: Q#A X002 (ip), vehicle: saline): 89 % of control and 118 % of control
T/C (dose: 128.0 mg/kg/injection, schedule: Q01DX001 (oral), vehicle: other): 101 % of control
T/C (dose: 128.0 mg/kg/injection, schedule: Q01DX005 (oral), vehicle: saline): 98 % of control
T/C (dose: 128.0 mg/kg/injection, schedule: Q## X006 (ip), vehicle: other): 121 % of control
T/C (dose: 128.0 mg/kg/injection, schedule: Q#A X002 (ip), vehicle: saline): 89 % of control and 113 % of control
T/C (dose: 231.7 mg/kg/injection, schedule: Q## X006 (ip), vehicle: saline): 119 % of control
T/C (dose: 256.0 mg/kg/injection, schedule: Q01DX001 (oral), vehicle: other): 113 % of control
T/C (dose: 256.0 mg/kg/injection, schedule: Q01DX005 (oral), vehicle: other): 93 % of control
T/C (dose: 256.0 mg/kg/injection, schedule: Q01DX005 (oral), vehicle: saline): 103 % of control
T/C (dose: 256.0 mg/kg/injection, schedule: Q#A X002 (ip), vehicle: saline): 92 % of control
T/C (dose: 512.0 mg/kg/injection, schedule: Q01DX001 (oral), vehicle: other): 113 % of control
T/C (dose: 512.0 mg/kg/injection, schedule: Q01DX005 (oral), vehicle: saline): 113 % of control
T/C (dose: 1024.0 mg/kg/injection, schedule: Q01DX001 (oral), vehicle: other): 117 % of control

CCC1(O)CC2CN(CCc3c([nH]c4ccccc34)C(C(=O)OC)(c3cc4c(cc3OC)N(C)C3C(O)(C(=O)NCCO)C(O)C5(CC)C=CCN6CCC43C65)C2)C1 (configuration not stated)
T/C (dose: 0.05 mg/kg/injection, schedule: Q01DX005 (ip), vehicle: saline): 108 % of control
T/C (dose: 0.1 mg/kg/injection, schedule: Q01DX005 (ip), vehicle: saline): 113 % of control
T/C (dose: 0.2 mg/kg/injection, schedule: Q01DX005 (ip), vehicle: saline): 117 % of control
T/C (dose: 0.4 mg/kg/injection, schedule: Q01DX005 (ip), vehicle: saline): 108 % of control
T/C (dose: 0.8 mg/kg/injection, schedule: Q01DX005 (ip), vehicle: saline): 108 % of control

CCCN(C)C(=O)N(CCCl)N=O
T/C (dose: 39.0 mg/kg/injection, schedule: Q01DX001 (ip), vehicle: other): 182 % of control
T/C (dose: 62.5 mg/kg/injection, schedule: Q01DX001 (ip), vehicle: other): 309 % of control
T/C (dose: 78.0 mg/kg/injection, schedule: Q01DX001 (ip), vehicle: other): 227 % of control
T/C (dose: 125.0 mg/kg/injection, schedule: Q01DX001 (ip), vehicle: other): 309 % of control
T/C (dose: 156.0 mg/kg/injection, schedule: Q01DX001 (ip), vehicle: other): 308 % of control

O=S(=O)(O)O
T/C [3]: 90 % of control
T/C [4]: 94 % of control
T/C (dose: 64.0 mg/kg/injection, schedule: Q01DX005 (ip), vehicle: saline with Tween-80): 112 % of control

CS(C)=O
T/C (dose: 1.5 grams/kg/injection, schedule: Q01DX005 (ip), vehicle: saline): 103 % of control
T/C (dose: 6.0 grams/kg/injection, schedule: Q01DX005 (ip), vehicle: saline): 103 % of control

O=C(NP(=O)(N1CC1)N1CC1)c1cc(I)ccc1I
T/C [5]: 106 % of control
T/C (dose: 8.0 mg/kg/injection, schedule: Q01DX005 (ip), vehicle: saline with Tween-80): 91 % of control and 104 % of control
T/C (dose: 8.0 mg/kg/injection, schedule: Q01DX005 (ip), vehicle: saline): 102 % of control and 107 % of control
T/C [6]: 113 % of control
T/C [3]: 101 % of control and 106 % of control
T/C [1]: 102 % of control and 119 % of control
T/C [7]: 120 % of control
T/C [4]: 101 % of control
T/C [2]: 113 % of control
T/C (dose: 64.0 mg/kg/injection, schedule: Q01DX005 (ip), vehicle: saline): 119 % of control and 124 % of control

OCCN1CCN(CC/C=C2/c3ccccc3Sc3ccc(C(F)(F)F)cc32)CC1
T/C (dose: 12.5 mg/kg/injection, schedule: Q04DX003 (ip), vehicle: saline): 115 % of control
T/C (dose: 25.0 mg/kg/injection, schedule: Q04DX003 (ip), vehicle: saline): 117 % of control

CCC(=O)NC1=C(N2CC2C)C(=O)C(NC(=O)CC)=C(N2CC2C)C1=O (configuration not stated)
T/C (dose: 6.25 mg/kg/injection, schedule: Q01DX009 (ip), vehicle: Klucel (hydroxypropylcellulose) (HPC)): 105 % of control

CCN(CC)CCOc1ccc(/C(=C(\Cl)c2ccccc2)c2ccccc2)cc1
T/C [5]: 97 % of control and 99 % of control
T/C [6]: 97 % of control and 108 % of control
T/C [7]: 95 % of control and 112 % of control
T/C (dose: 32.0 mg/kg/injection, schedule: Q01DX005 (oral), vehicle: Klucel (hydroxypropylcellulose) (HPC)): 101 % of control
T/C (dose: 64.0 mg/kg/injection, schedule: Q01DX005 (ip), vehicle: Klucel (hydroxypropylcellulose) (HPC)): 88 % of control and 95 % of control
T/C (dose: 64.0 mg/kg/injection, schedule: Q01DX005 (oral), vehicle: Klucel (hydroxypropylcellulose) (HPC)): 104 % of control
T/C (dose: 128.0 mg/kg/injection, schedule: Q01DX005 (oral), vehicle: Klucel (hydroxypropylcellulose) (HPC)): 96 % of control

Cc1c2oc3c(C)ccc(C(=O)NC4C(=O)NC(C(C)C)C(=O)N5CCCC5C(=O)N(C)CC(=O)N(C)C(C(C)C)C(=O)OC4C)c3nc-2c(C(=O)NC2C(=O)NC(C(C)C)C(=O)N3CCC3C(=O)N(C)CC(=O)N(C)C(C(C)C)C(=O)OC2C)c(N)c1=O (configuration not stated) (I: TV[Aze][Sar][NMeV] / II: TVP[Sar][NMeV]; ester I:1-I:C, II:1-II:C; linker I:N-II:N via Actinocin(1to9); configuration not given here)
T/C (dose: 12.5 micrograms/kg/injection, schedule: Q01DX005 (ip), vehicle: saline): 110 % of control
T/C (dose: 25.0 micrograms/kg/injection, schedule: Q01DX005 (ip), vehicle: saline): 107 % of control
T/C (dose: 50.0 micrograms/kg/injection, schedule: Q01DX005 (ip), vehicle: saline): 101 % of control
T/C (dose: 100.0 micrograms/kg/injection, schedule: Q01DX005 (ip), vehicle: saline): 111 % of control
